Patent US20120219561A1, “Prophylaxis Against Cancer Metastasis” (Ingeneron, Inc., priority 2009, published 2012)

Key:
[1] = test system: CXCR4 receptor; details: animal and human studies; cited from earlier work
[2] = test system: LCN2 expression in SKBr3 cells; test: Western blotting of LCN2 levels in SKBr3 cells incubated with pathway inhibitors; type: cell-based, human
Method: FIG. 3 depicts experiments showing that LCN2 (NGAL) is a down-stream target of the HER2/PI-3K/AKT/NF-κB pathway. A. Western blotting of LCN2 levels in HER2^+SKBr3 cells treated with Herceptin. B. Western blotting of LCN2 levels in SKBr3 cells incubated with PI-3K inhibitor LY 294002. C. Western blotting of LCN2 levels in SKBr3 cells incubated with the NF-KB inhibitor Bay11-7082. D. Western blotting of LCN2 levels in SKBr3 cells transiently expressing active or dominant negative AKT.
In addition, overexpression of dominant negative AKT led to reduced expression of LCN2, while overexpression of dominant active AKT increased LCN2 levels ([…]). […] Iannetti A, et al. “The neutrophil gelatinase-associated lipocalin (NGAL), a NF-kappaB-regulated gene, is a survival factor for thyroid neoplastic cells” Proc Natl Acad Sci USA 105(37) (2008) 14058.

[3] = test system: 4T1 mammospheres; test: Transwell migration assay of 4T1 mammospheres; type: cell-based, murine; details: recombinant SDF-1 in serum-free medium in lower chamber
Method: FIG. 5 show the mediators for interaction between stem cells and cancer cells. (A) 4T1 cells and especially spheroid-forming 4T1 cells migrate toward the conditioned medium of mASC. 4T1 cells (3×10^4) were plated in the upper chamber of a 3 μm transwell system. The lower chamber was filled with 1 ml of 72 h conditioned medium of mASC. After 24 h of migration through the transwell membrane, cells were fixed and stained with calcein. The results are the mean and SD number of migrated cells per microscopic field under fluorescent microscope. (B) Data showing that mASC but not 4T1 cells produce SDF-1; 4T1 cells especially spheroid-forming 4T1 cells show higher messenger RNA levels of the specific receptor CXCR4. Secreted amounts of SDF-1a were measured by enzyme-linked immunosorbent assay and CXCR4 messenger RNA levels were determined by quantitative reverse transcription-polymerase chain reaction (RT-PCR). Reverse transcription-polymerase chain reaction results were normalized against GAPDH. (C) 4T1 cells and mammospheres migrate toward recombinant SDF-1 in a transwell system. Recombinant murine SDF-1 in serum-free medium was filled into the lower chamber in stated concentrations. CXCR4 inhibition was performed by 30 μg/ml neutralizing antibody 1 h before and during the migration assay. […]

c1cc(CN2CCCNCCNCCCNCC2)ccc1CN1CCCNCCNCCCNCC1 [AMD3100]
hematopoietic stem cell mobilization [1]: able to induce hematopoietic stem cell mobilization

Cc1ccc(S(=O)(=O)/C=C/C#N)cc1 [Bay11-7082]
LCN2 expression [2]: reduced in a dose-dependent manner

recombinant SDF-1: recombinant murine SDF-1 (CXCL12), ligand of CXCR4
migration of 4T1 spheroid-forming cells [3]: triggers migration
